Converted amounts (≈) assume the structure as drawn.
What was measured:
Type in all cases: cell-based
Staph. aureus = test: MIC vs Staph. aureus (Table 2); conditions: Staphylococcus aureus, strain not given
Excerpt: (§1) The compounds of the present invention were subjected to standard tests in order to determine the minimum inhibitory concentration in μg/ml needed to inhibit a range of bacterial microorganisms in-vitro.

Gonococci = test: MIC against Gonococci in vitro; conditions: Gonococci (average 17 strains); read-out: Minimum Inhibitory Concentration (MIC)
Excerpt: as §1

Staph. aureus CN491 = test: MIC against Staph. aureus CN491 in vitro; conditions: Staphylococcus aureus, read-out: Minimum Inhibitory Concentration (MIC)
Excerpt: as §1

St. faecalis CN478 = test: MIC against St. faecalis CN478 in vitro; conditions: Enterococcus faecalis, read-out: Minimum Inhibitory Concentration (MIC)
Excerpt: as §1

[1] = tested on: Vibrio cholerae ATCC14035; test: MIC against Vibrio cholerae ATCC14035 in vitro; conditions: ATCC14035, read-out: Minimum Inhibitory Concentration (MIC)
Excerpt: as §1

St. agalactiae CN1143 = test: MIC against St. agalactiae CN1143 in vitro; conditions: Streptococcus agalactiae, read-out: Minimum Inhibitory Concentration (MIC)
Excerpt: as §1

Esch. coli CN314 = test: MIC against Esch. coli CN314 in vitro; conditions: Escherichia coli, read-out: Minimum Inhibitory Concentration (MIC)
Excerpt: as §1

Pr. mirabilis S2409 = test: MIC against Pr. mirabilis S2409 in vitro; conditions: Proteus mirabilis, read-out: Minimum Inhibitory Concentration (MIC)
Excerpt: as §1

B. fragilis = test: MIC against B. fragilis in vitro; conditions: Bacteroides fragilis; B. fragilis (average 3-10 strains); read-out: Minimum Inhibitory Concentration (MIC)
Excerpt: as §1

Meningococci = test: MIC against Meningococci in vitro; conditions: Meningococci (average 5 strains); read-out: Minimum Inhibitory Concentration (MIC)
Excerpt: as §1

C=CCc1cc(Cc2cnc(N)nc2N)c2ccc(C)nc2c1OC [Compound 16, 5-(7-Allyl-8-methoxy-2-methyl-5-quinolylmethyl)-2,4-diaminopyrimidine]
MIC (Staph. aureus): 0.05 µg/mL (≈ 0.149 µM)

COc1cc(Cc2cnc(N)nc2N)c2ccncc2c1N.Cl.Cl [Compound 25, 2,4-Diamino-5-(8-amino-7-methoxy-5-isoquinolylmethyl)pyrimidine dihydrochloride]
MIC (Gonococci): 8.1 µg/mL
MIC (Staph. aureus CN491): 0.05 µg/mL
MIC (St. faecalis CN478): 0.05 µg/mL
MIC [1]: 0.05 µg/mL
MIC (St. agalactiae CN1143): 0.05 µg/mL
MIC (Esch. coli CN314): 0.05 µg/mL
MIC (Pr. mirabilis S2409): 5 µg/mL
MIC (B. fragilis): 2.6 µg/mL
MIC (Meningococci): 3.1 µg/mL

Cc1cc(Cc2cnc(N)nc2N)c2cccnc2c1.Cl.Cl [Compound 17, 2,4-Diamino-5-(7-methyl-5-quinolylmethyl)-pyrimidine dihydrochloride]
MIC (Staph. aureus): 0.5 µg/mL

COc1cc(Cc2cnc(N)nc2N)c2cccnc2c1O [Compound 23, 2,4-Diamino-5-(8-hydroxy-7-methoxy-5-quinolylmethyl)pyrimidine]
MIC (Staph. aureus): 5 µg/mL (≈ 16.8 µM)

Cc1cc(Cc2cnc(N)nc2N)c2cccnc2c1N(C)C.Cl.Cl [Compound 9, 2,4-Diamino-5-(8-dimethylamino-7-methyl-5-quinolylmethyl)pyrimidine dihydrochloride]
MIC (Gonococci): > 25 µg/mL
MIC (Staph. aureus CN491): 0.5 µg/mL
MIC (St. faecalis CN478): 0.05 µg/mL
MIC [1]: 0.5 µg/mL
MIC (St. agalactiae CN1143): 0.5 µg/mL
MIC (Esch. coli CN314): 0.1 µg/mL
MIC (Pr. mirabilis S2409): 5 µg/mL
MIC (B. fragilis): 7.8 µg/mL
MIC (Meningococci): > 25 µg/mL

COc1cc(Cc2cnc(N)nc2N)c2cccnc2c1SC [Compound 31, 2,4-Diamino-5-(7-methoxy-8-methylthio-5-quinolylmethyl)pyrimidine]
MIC (Gonococci): 34.4 µg/mL (≈ 105 µM)
MIC (Staph. aureus CN491): 0.05 µg/mL (≈ 0.153 µM)
MIC (St. faecalis CN478): 0.05 µg/mL (≈ 0.153 µM)
MIC [1]: 0.05 µg/mL (≈ 0.153 µM)
MIC (St. agalactiae CN1143): 0.5 µg/mL (≈ 1.53 µM)
MIC (Esch. coli CN314): 0.1 µg/mL (≈ 0.305 µM)
MIC (Pr. mirabilis S2409): 5 µg/mL (≈ 15.3 µM)
MIC (B. fragilis): 3.1 µg/mL (≈ 9.47 µM)
MIC (Meningococci): 14.4 µg/mL (≈ 44 µM)

Cl.Cl.Nc1ncc(Cc2cc(Cl)c(N)c3ncccc23)c(N)n1 [Compound 28, 2,4-Diamino-5-(8-amino-7-chloro-5-quinolylmethyl)pyrimidine dihydrochloride]
MIC (Staph. aureus): 0.1 µg/mL

COc1cc(Cc2cnc(N)nc2N)c2ncccc2c1N [Compound 35, 2,4-Diamino-5-(5-amino-6-methoxy-8-quinolylmethyl)pyrimidine]
MIC (Staph. aureus): 0.5 µg/mL (≈ 1.69 µM)

COc1cc(Cc2cnc(N)nc2N)c2c(c1OC)OC(C)CC2 (stereo not drawn) [Compound 22, 2,4-Diamino-5-(7,8-dimethoxy-3,4-dihydro-2-methyl-2 --H---1-benzopyran-5-ylmethyl)pyrimidine]
MIC (Staph. aureus): 0.1 µg/mL (≈ 0.303 µM)

C=CCc1cc(Cc2cnc(N)nc2N)c2c(c1OC)NCCC2 [Compound 36, 5-(7-allyl-8-methoxy-5-(1,2,3,4-tetrahydro-quinolylmethyl))-2,4-diaminopyrimidine]
MIC (Staph. aureus): 0.05 µg/mL (≈ 0.154 µM)

Cc1cc(Cc2cnc(N)nc2N)c2ncccc2c1N [Compound 34, 2,4-Diamino-5-(5-amino-6-methyl-8-quinolylmethyl)pyrimidine]
MIC (Staph. aureus): 5 µg/mL (≈ 17.8 µM)

COc1cc(Cc2cnc(N)nc2N)c2c(c1OC)OC=CC2 [Compound 10, 2,4-Diamino-5-(7,8-dimethoxy-4 --H--1-benzopyran-5-ylmethyl)pyrimidine acetate]
MIC (Staph. aureus): 0.05 µg/mL

C=CCc1cc(Cc2cnc(N)nc2N)c2cccnc2c1OC [Compound 12, 5-(7-Allyl-8-methoxy-5-quinolylmethyl)-2,4-diaminopyrimidine]
MIC (Staph. aureus): 0.05 µg/mL (≈ 0.156 µM)

CCCc1cc(Cc2cnc(N)nc2N)c2cccnc2c1OC [Compound 20, 2,4-Diamino-5-(8-methoxy-7-propyl-5-quinolylmethyl)-pyrimidine]
MIC (Staph. aureus): 0.05 µg/mL (≈ 0.155 µM)

COc1cc(Cc2cnc(N)nc2N)c2c(c1OC)OC(C)(C)C=C2 [Compound 6, 2,4-Diamino-5-(7,8-dimethoxy-2,2-dimethyl-2 --H--1-benzopyran-5-ylmethyl) pyrimidine lactate]
MIC (Staph. aureus): 0.05 µg/mL

COc1cc(Cc2cnc(N)nc2N)c2cccnc2c1OC [Compound 24, 2,4-Diamino-5-(7,8-dimethoxy-5-quinolylmethyl)pyrimidine]
MIC (Staph. aureus): 0.1 µg/mL (≈ 0.321 µM)

CC(=O)O.Cc1cc(Cc2cnc(N)nc2N)c2cccnc2c1-n1cccc1 [Compound 18, 2,4-Diamino-5-(8-(1-pyrrolyl)-7-methyl-5-quinolylmethyl)pyrimidine acetate]
MIC (Staph. aureus): 0.5 µg/mL

COc1cc(Cc2cnc(N)nc2N)c2c(c1OC)OCCC2 [Compound 2, 2,4-Diamino-5-(3,4-dihydro-7,8-dimethoxy-2 --H--1-benzopyran-5-yl) pyrimidine]
MIC (Staph. aureus): 0.5 µg/mL (≈ 1.58 µM)

COc1cc(Cc2cnc(N)nc2N)c2c(c1OC)OC(C)C=C2 (stereo not drawn) [Compound 4, 2,4-Diamino-5-(7,8-dimethoxy-2-methyl-2 --H--1-benzopyran-5-ylmethyl) pyrimidine lactate]
MIC (Gonococci): 4.6 µg/mL
MIC (Staph. aureus CN491): 0.05 µg/mL
MIC (St. faecalis CN478): 0.01 µg/mL
MIC [1]: 0.05 µg/mL
MIC (St. agalactiae CN1143): 0.05 µg/mL
MIC (Esch. coli CN314): 0.1 µg/mL
MIC (Pr. mirabilis S2409): 5 µg/mL
MIC (B. fragilis): 0.48 µg/mL
MIC (Meningococci): 2.8 µg/mL

COc1ccc(Cc2cnc(N)nc2N)c2cccnc12 [Compound 3, 2,4-Diamino-5-(8-methoxy-5-quinolylmethyl)-pyrimidine]
MIC (Staph. aureus): 0.5 µg/mL (≈ 1.78 µM)

COc1cc(Cc2cnc(N)nc2N)c2c(c1OC)OC(C)=CC2 [Compound 19, 2,4-Diamino-5-(7,8-dimethoxy-2-methyl-4H--1-benzopyran-5-ylmethyl)pyrimidine]
MIC (Staph. aureus): 0.05 µg/mL (≈ 0.152 µM)

COc1cc(Cc2cnc(N)nc2N)c2ccc(=O)oc2c1OC [Compound 7, 2,4-Diamino-5-(7,8-dimethoxy-2-oxo-2 --H--1-benzopyran-5-ylmethyl)pyrim]
MIC (Staph. aureus): 0.5 µg/mL (≈ 1.52 µM)

C=CCc1cc(Cc2cnc(N)nc2N)c2cccnc2c1OCCOC [Compound 27, 2,4-Diamino-5-(7-allyl-8-(2-methoxyethoxy)-5-quinolylmethyl)pyrimidine]
MIC (Staph. aureus): 0.1 µg/mL (≈ 0.274 µM)

CSc1cc(Cc2cnc(N)nc2N)c2cccnc2c1N.Cl.Cl [Compound 30, 2,4-Diamino-5-(8-amino-7-methylthio-5-quinolylmethyl)pyrimidine dihydrochloride]
MIC (Staph. aureus): 0.1 µg/mL

CCOc1cc(Cc2cnc(N)nc2N)c2cccnc2c1N [Compound 26, 2,4-Diamino-5-(8-amino-7-ethoxy-5-quinolylmethyl)pyrimidine]
MIC (Staph. aureus): 0.05 µg/mL (≈ 0.161 µM)

COc1cc(Cc2cnc(N)nc2N)c2cccnc2c1N(C)C.Cl.Cl [Compound 15, 2,4-Diamino-5-(8-dimethylamino-7-methoxy-5-quinolylmethyl)pyrimidine dihydrochloride]
MIC (Staph. aureus): 0.5 µg/mL

CC=Cc1cc(Cc2cnc(N)nc2N)c2cccnc2c1OC [Compound 14, 2,4-Diamino-5-(8-methoxy-7-(1-propenyl)-5-quinolylmethyl)pyrimidine]
MIC (Staph. aureus): 0.05 µg/mL (≈ 0.156 µM)

C=CCc1cc(Cc2cnc(N)nc2N)c2cccnc2c1O [Compound 11, 5-(7-Allyl-8-hydroxy-5-quinolylmethyl)-2,4-diaminopyrimidine]
MIC (Staph. aureus): 1 µg/mL (≈ 3.25 µM)

C=CCc1cc(Cc2cnc(N)nc2N)c2ccc(C)nc2c1O [Compound 13, 5-(7-Allyl-8-hydroxy-2-methyl-5-quinolylmethyl)-2,4-diaminopyrimidine]
MIC (Staph. aureus): 0.1 µg/mL (≈ 0.311 µM)

COc1cc(Cc2cnc(N)nc2N)c2cccnc2c1 [Compound 29, 2,4-Diamino-5-(7-methoxy-5-quinolylmethyl)pyridimine]
MIC (Staph. aureus): 0.5 µg/mL (≈ 1.78 µM)

Cc1cc(Cc2cnc(N)nc2N)c2cccnc2c1N.Cl [Compound 5, 2,4-Diamino-5-(8-amino-7-methyl-5-quinolylmethyl)-pyrimidine hydrochloride]
MIC (Staph. aureus): 0.5 µg/mL

Source: US4587342A, “2,4-diamino-(substituted-benzopyran(quinolyl,isoquinoly)methyl)pyrimidine s useful as antibacterials” (priority 1980, dated 1986)
